Laboratory results published in the NIST ThermoML archive (doi:10.1021/je0498208).
Numbers after ± are expanded uncertainties.

Experiments:
[1] = Liquid; for viscosity: 101 kPa; for mass density: 101.3 kPa
[2] = xn = mol fraction of the nth substance listed; conditions: Liquid, x2 = 0; for viscosity: 101 kPa; for mass density: 101.3 kPa

Structure (SMILES)	viscosity ([1]; 298.15 K)	viscosity ([1]; 303.15 K)	viscosity ([1]; 313.15 K)	viscosity ([1]; 323.15 K)	mass density ([1]; 323.15 K)	viscosity ([1]; 333.15 K)	mass density ([1]; 333.15 K)	viscosity ([1]; 343.15 K)	mass density ([1]; 343.15 K)	also measured
O=CN1CCOCC1 [N-formylmorpholine]	7.87 ± 0.22 mPa·s	6.75 ± 0.2 mPa·s	5.13 ± 0.15 mPa·s	4.03 ± 0.12 mPa·s	1124.82 ± 1.2 kg/m3	3.25 ± 0.1 mPa·s	1116.11 ± 1.1 kg/m3	2.68 ± 0.08 mPa·s	1107.39 ± 1.1 kg/m3	mass density ([1]; 298.15 K): 1146.62 ± 1.2 kg/m3; mass density ([1]; 303.15 K): 1142.26 ± 1.2 kg/m3; mass density ([1]; 313.15 K): 1133.53 ± 1.2 kg/m3
O [water]	0.89 ± 0.027 mPa·s	0.7976 ± 0.025 mPa·s	0.6531 ± 0.02 mPa·s	0.547 ± 0.017 mPa·s	988.04 ± 0.13 kg/m3	0.466 ± 0.015 mPa·s	983.12 ± 0.13 kg/m3	0.4049 ± 0.013 mPa·s	977.77 ± 0.13 kg/m3	
O [water] + O=CN1CCOCC1										viscosity ([2]; 298.15 K): 0.89 ± 0.027 mPa·s; viscosity ([2]; 303.15 K): 0.7976 ± 0.025 mPa·s; viscosity ([2]; 313.15 K): 0.6531 ± 0.02 mPa·s; viscosity ([2]; 323.15 K): 0.547 ± 0.017 mPa·s; mass density ([2]; 323.15 K): 988.04 ± 0.13 kg/m3; viscosity ([2]; 333.15 K): 0.466 ± 0.015 mPa·s; mass density ([2]; 333.15 K): 983.12 ± 0.13 kg/m3; viscosity ([2]; 343.15 K): 0.4049 ± 0.013 mPa·s; mass density ([2]; 343.15 K): 977.77 ± 0.13 kg/m3
